Experimental data reported in patent US10071976B2, “Small molecule fatty acid synthase inhibitors” (Sanford Burnham Prebys Medical Discovery Institute, priority 2014, dated 2018).

Target: FASN-TE (Homo sapiens, UniProt P49327)
Assay: In-vitro biochemical assay measuring FAS-TE inhibition (OMFH substrate, fluorescence)
Protocol: Min wells: Substrate+No enzyme+DMSO, Max wells: Substrate+Enzyme+DMSO, Sample wells: Substrate+Enzyme+Test compounds, Reference compound: Orlistat (make a fresh 10 mM stock in DMSO each time). 384-well black, low-volume plate (Greiner #784076)
Assay Protocol: • 1) ECHO transfer 160 nL of 125× Compound (or DMSO for control wells) per well. • 2) For Max and Sample wells: Add 10 μL of Enzyme (2×; 1.8 μM) prepared in RXN Buffer. For Min wells: Add 10 μL of RXN Buffer (No Enzyme). • 3) For all wells: Add 10 μL of Substrate (2×; 20 μM) prepared in diH2O+10% DMSO. • 4) Centrifuge plate for 1 minute at 1,000 rpm. • 5) Measure fluorescence every 5 minutes for 1-1.5 hours using the BMG POLARstar (ex 485 nm/em 520 nm; Gain=1015; 25 flashes). • 6) All volumes can be adjusted but the final DMSO concentration should be kept at about 6%.
Data Analysis: • 1) Calculate slopes and express as % Activity (Min wells=0%; Max wells=100%). • 2) Then, using Prism, calculate the IC50 values.

FASN-TE, sequence (P49327 2207-2511 limits assumed): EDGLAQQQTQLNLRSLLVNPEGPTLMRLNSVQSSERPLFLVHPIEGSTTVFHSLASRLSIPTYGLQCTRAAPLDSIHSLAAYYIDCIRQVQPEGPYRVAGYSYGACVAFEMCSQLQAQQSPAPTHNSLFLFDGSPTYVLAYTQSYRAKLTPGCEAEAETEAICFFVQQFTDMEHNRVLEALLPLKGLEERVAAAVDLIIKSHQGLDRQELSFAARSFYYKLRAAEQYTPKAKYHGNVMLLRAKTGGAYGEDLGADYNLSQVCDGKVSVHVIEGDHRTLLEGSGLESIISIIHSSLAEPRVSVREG

| IC50 | Structure (SMILES) |
| --- | --- |
| 0.33 µM | CCC(CC)C(=O)Nc1nc(-c2ccc(S(=O)(=O)N(CC)CC)cc2)cs1 [Compound 55] |
| 37.4 µM | O=C(Nc1nc(-c2ccc(S(=O)(=O)N3CCOCC3)cc2)cs1)c1ccco1 [Compound 11] |
| > 80 µM | CCC(=O)Nc1nc(-c2ccc(S(=O)(=O)N3CCC(C)CC3)cc2)cs1 [Compound 23] |
| ≥ 80 µM | CCN(CC)S(=O)(=O)c1ccc(-c2csc(C)n2)cc1 [Compound 82] |
| 0.56 µM | O=C(Nc1nc(-c2ccc(S(=O)(=O)N3CCCC3)cc2)cs1)C1CC1 [Compound 28] |
| 0.14 µM | CCCCCC(=O)Nc1nc(-c2ccc(S(=O)(=O)N3CCCC3)cc2)cs1 [Compound 50] |
| 0.75 µM | CCCCCC(=O)Nc1nc(-c2ccc(S(=O)(=O)N3CCC(C)CC3)cc2)cs1 [Compound 57] |
| 0.99 µM | CCN(CC)S(=O)(=O)c1ccc(-c2csc(NC(=O)C3CC3)n2)cc1 [Compound 35] |
| 1.2 µM | CN(C)S(=O)(=O)c1ccc(-c2csc(NC(=O)C3CC3)n2)cc1 [Compound 41] |
| 13.4 µM | CC(=O)Nc1nc(-c2ccc(S(=O)(=O)N3CCOCC3)cc2)cs1 [Compound 9] |
| 3.6 µM | O=C(Nc1nc(-c2ccc(S(=O)(=O)N3CCOCC3)cc2)cs1)C1CCC1 [Compound 18] |
| 2.9 µM | CCN(CC)S(=O)(=O)c1ccc(-c2csc(NC(=O)C3CCCCC3)n2)cc1 [Compound 38] |
| 4.3 µM | CCCCCCCC(=O)Nc1nc(-c2ccc(S(=O)(=O)N3CCCCC3C)cc2)cs1 (centres unmarked) [Compound 47] |
| 1.4 µM | CN(C)S(=O)(=O)c1ccc(-c2csc(NC(=O)C3CCC3)n2)cc1 [Compound 42] |
| 1.72 µM | CCN(CC)S(=O)(=O)c1ccc(-c2csc(Cc3ccccc3F)n2)cc1 [Compound 109] |
| 1.1 µM | CCC(=O)Nc1nc(-c2ccc(S(=O)(=O)N(C)C)cc2)cs1 [Compound 40] |
| 32.9 µM | O=C(Nc1nc(-c2ccc(S(=O)(=O)N3CCOCC3)cc2)cs1)c1cccs1 [Compound 10] |
| 2.41 µM | CCN(CC)S(=O)(=O)c1ccc(-c2csc(Cc3ccc(F)cc3)n2)cc1 [Compound 111] |
| > 80 µM | CC1CCN(S(=O)(=O)c2ccc(-c3csc(NC(=O)C4CC4)n3)cc2)CC1 [Compound 25] |
| 0.15 µM | CCC(C)C(=O)Nc1nc(-c2ccc(S(=O)(=O)N3CCCC3)cc2)cs1 (centres unmarked) [Compound 48] |
| 0.29 µM | CCC(C)C(=O)Nc1nc(-c2ccc(S(=O)(=O)N3CCCCC3C)cc2)cs1 (centres unmarked) [Compound 44] |
| 19 µM | CCN(CC)S(=O)(=O)c1ccc(-c2csc(NC(=O)CC(C)C)n2)cc1 [Compound 99] |
| 1.11 µM | CCN(CC)S(=O)(=O)c1ccc(-c2csc(-c3ccc(F)cc3)n2)cc1 [Compound 103] |
| 11.6 µM | CC(C)CC(=O)Nc1nc(-c2ccc(S(=O)(=O)N3CCOCC3)cc2)cs1 [Compound 7] |
| ≥ 80 µM | CCN(CC)S(=O)(=O)c1ccc(-c2csc(-c3ccc(Br)cc3)n2)cc1 [Compound 105] |
| 4.5 µM | O=C(COc1cccc(Cl)c1)Nc1nc(-c2ccc(S(=O)(=O)N3CCOCC3)cc2)cs1 [Compound 2] |
| 60.4 µM | CC(C)CC(=O)Nc1nc(-c2ccc(S(=O)(=O)N3CCC(C)CC3)cc2)cs1 [Compound 59] |

| IC50 | Structure (SMILES) |
| --- | --- |
| 0.73 µM | O=C(Nc1nc(-c2ccc(S(=O)(=O)N3CCCC3)cc2)cs1)C1CCCC1 [Compound 30] |
| 29 µM | CC(C)(C)OC(=O)Nc1nc(-c2ccc(S(=O)(=O)N3CCOCC3)cc2)cs1 [Compound 21] |
| 0.82 µM | CC(C)C(=O)Nc1nc(-c2ccc(S(=O)(=O)N3CCOCC3)cc2)cs1 [Compound 6] |
| ≥ 80 µM | CCN(CC)S(=O)(=O)c1ccc(-c2csc(-c3cccc(Br)c3)n2)cc1 [Compound 107] |
| 2.68 µM | O=S(=O)(c1ccc(-c2csc(-c3cccnc3)n2)cc1)N1CCCCC1 [Compound 64] |
| 1.6 µM | CN(C)S(=O)(=O)c1ccc(-c2csc(NC(=O)C3CCCC3)n2)cc1 [Compound 43] |
| 4.5 µM | CCCCCCC(=O)Nc1nc(-c2ccc(S(=O)(=O)N3CCC(C)CC3)cc2)cs1 [Compound 58] |
| 0.85 µM | CCCCCCC(=O)Nc1nc(-c2ccc(S(=O)(=O)N3CCCC3)cc2)cs1 [Compound 51] |
| 0.38 µM | CCCCC(=O)Nc1nc(-c2ccc(S(=O)(=O)N3CCCCC3C)cc2)cs1 (centres unmarked) [Compound 45] |
| 0.28 µM | CCN(CC)S(=O)(=O)c1ccc(-c2csc(NC(=O)C(C)C)n2)cc1 [Compound 33] |
| 0.65 µM | CCC(=O)Nc1nc(-c2ccc(S(=O)(=O)N3CCCC3)cc2)cs1 [Compound 26] |
| 11.4 µM | CCN(CC)S(=O)(=O)c1ccc(-c2csc(C(C)C)n2)cc1 [Compound 101] |
| 12.6 µM | CCN(CC)S(=O)(=O)c1ccc(-c2csc(C(C)(C)C)n2)cc1 [Compound 102] |
| 1.8 µM | CCC(CC)C(=O)Nc1nc(-c2ccc(S(=O)(=O)N3CCC(C)CC3)cc2)cs1 [Compound 61] |
| 0.172 µM | CCCCC(=O)Nc1nc(-c2ccc(S(=O)(=O)N(CC)CC)cc2)cs1 [Compound 32] |
| ≥ 80 µM | CCc1nc(-c2ccc(S(=O)(=O)N(CC)CC)cc2)cs1 [Compound 100] |
| 0.2 µM | CCCCCC(=O)Nc1nc(-c2ccc(S(=O)(=O)N(CC)CC)cc2)cs1 [Compound 53] |
| 1.18 µM | O=S(=O)(c1ccc(-c2csc(N3CCCC3)n2)cc1)N1CCOCC1 [Compound 98] |
| 1.6 µM | CC(C)CC(=O)Nc1nc(-c2ccc(S(=O)(=O)N3CCCC3)cc2)cs1 [Compound 52] |
| 2.14 µM | O=S(=O)(c1ccc(-c2csc(-c3cccnc3)n2)cc1)N1CCOCC1 [Compound 81] |
| 5.01 µM | CCN(CC)S(=O)(=O)c1ccc(-c2csc(Cc3cccc(I)c3)n2)cc1 [Compound 112] |
| ≥ 80 µM | CCN(CC)S(=O)(=O)c1ccc(-c2csc(-c3ccc(Cl)cc3)n2)cc1 [Compound 104] |
| 0.71 µM | CCCCC(=O)Nc1nc(-c2ccc(S(=O)(=O)N3CCSCC3)cc2)cs1 [Compound 12] |
| 1.31 µM | O=C(Nc1nc(-c2ccc(S(=O)(=O)N3CCCC3)cc2)cs1)C1COc2ccccc2O1 (centres unmarked) [Compound 63] |
| 5.21 µM | CN(C)S(=O)(=O)c1ccc(-c2csc(-c3cccnc3)n2)cc1 [Compound 83] |
| 4.25 µM | CCC(=O)Nc1nc(-c2ccc(S(=O)(=O)N(CC)CC)cc2)cs1 [Compound 31] |
| 0.66 µM | O=S(=O)(c1ccc(-c2csc(Cc3ccccc3)n2)cc1)N1CCOCC1 [Compound 96] |

| IC50 | Structure (SMILES) |
| --- | --- |
| 0.31 µM | CCC(C)C(=O)Nc1nc(-c2ccc(S(=O)(=O)N3CCOCC3)cc2)cs1 (centres unmarked) [Compound 15] |
| 0.2 µM | CCCCC(=O)Nc1nc(-c2ccc(S(=O)(=O)N3CCCC3)cc2)cs1 [Compound 8] |
| 4.68 µM | O=C(Nc1nc(-c2ccc(S(=O)(=O)N3CCCC3)cc2)cs1)c1ccco1 [Compound 4] |
| 0.58 µM | CC(C)C(=O)Nc1nc(-c2ccc(S(=O)(=O)N(C)C)cc2)cs1 [Compound 39] |
| 1.4 µM | CCCCCCC(=O)Nc1nc(-c2ccc(S(=O)(=O)N(CC)CC)cc2)cs1 [Compound 54] |
| 1.2 µM | CCN(CC)S(=O)(=O)c1ccc(-c2csc(NC(=O)C3CCCC3)n2)cc1 [Compound 36] |
| > 80 µM | O=C(Nc1nc(-c2ccc(S(=O)(=O)N3CCOCC3)cc2)cs1)C1CCCCC1 [Compound 20] |
| 14.8 µM | O=S(=O)(c1ccc(-c2csc(Nc3ccc(F)cc3)n2)cc1)N1CCCC1 [Compound 80] |
| 4.5 µM | CCC(=O)Nc1nc(-c2ccc(S(=O)(=O)N3CCOCC3)cc2)cs1 [Compound 14] |
| 0.58 µM | CCCC(=O)Nc1nc(-c2ccc(S(=O)(=O)N3CCCCC3C)cc2)cs1 (centres unmarked) [Compound 46] |
| ≥ 80 µM | CCN(CC)S(=O)(=O)c1ccc(-c2csc(-c3ccc(Br)cc3C)n2)cc1 [Compound 106] |
| 0.42 µM | O=C(COc1ccccc1)Nc1nc(-c2ccc(S(=O)(=O)N3CCOCC3)cc2)cs1 [Compound 3] |
| 0.26 µM | CCC(CC)C(=O)Nc1nc(-c2ccc(S(=O)(=O)N3CCCC3)cc2)cs1 [Compound 49] |
| 0.4 µM | O=C(Nc1nc(-c2ccc(S(=O)(=O)N3CCCC3)cc2)cs1)C1CCC1 [Compound 29] |
| 0.41 µM | CCC(C)C(=O)Nc1nc(-c2ccc(S(=O)(=O)N3CCC(C)CC3)cc2)cs1 (centres unmarked) [Compound 60] |
| > 80 µM | CC(=O)Nc1nc(-c2ccc(S(=O)(=O)N3CCSCC3)cc2)cs1 [Compound 13] |
| 21.7 µM | CC(C)c1nc(-c2ccc(S(=O)(=O)N3CCOCC3)cc2)cs1 [Compound 115] |
| 3.15 µM | CCN(CC)S(=O)(=O)c1ccc(-c2csc(Cc3cccc(F)c3)n2)cc1 [Compound 110] |
| 0.277 µM | CC(C)C(=O)Nc1nc(-c2ccc(S(=O)(=O)N3CCCC3)cc2)cs1 [Compound 27] |
| 1.48 µM | O=S(=O)(c1ccc(-c2csc(-c3ccc(F)cc3)n2)cc1)N1CCOCC1 [Compound 116] |
| 0.66 µM | CC1CCN(S(=O)(=O)c2ccc(-c3csc(NC(=O)C(C)C)n3)cc2)CC1 [Compound 24] |
| 1.51 µM | O=S(=O)(c1ccc(-c2csc(-c3cccnc3)n2)cc1)N1CCCC1 [Compound 69] |
| 2.3 µM | CCN(CC)S(=O)(=O)c1ccc(-c2csc(NC(=O)C3CC3)n2)cc1 [Compound 34] |
| 11.9 µM | COc1ccccc1C(=O)Nc1nc(-c2ccc(S(=O)(=O)N3CCOCC3)cc2)cs1 [Compound 5] |
| > 80 µM | O=C(Nc1nc(-c2ccc(S(=O)(=O)N3CCOCC3)cc2)cs1)C1CCCC1 [Compound 19] |
| 5.2 µM | O=C(Nc1nc(-c2ccc(S(=O)(=O)N3CCOCC3)cc2)cs1)C1CC1 [Compound 17] |
